Experimental data: PubChem BioAssay AID463206 (Broad Institute, 2010)
Activity calls are given as the source filed them.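 Rule for the calls: active = caspase luminescence falls with dose and the half-maximal concentration AC50 from the fitted curve is at or below a set limit; inconclusive = flat fit at 30 to 70% signal loss, or invalid fit; inactive = AC50 above the limit, or signal rises instead.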

The compounds below were run on INS-1E cytokine-induced caspase-3/7, Caspase-Glo luminescence, 48 h (assay: inhibitors of cytokine-induced caspase-3/7 activity, dose response, orthogonal assay for beta-cell apoptosis protection project, INS-1E rat cells, luminescence (AID 463206)).

Compound	AC50
C=CCn1c(C)c(/C=C/c2cc[n+](C)cc2)c2ccccc21	> 26 µM (inactive)
CN(Cc1cccnc1)C(=O)c1cc(COc2ccc3ncccc3c2)on1	> 26 µM (inactive)
CC1=C/C(=N\OS(=O)(=O)c2ccccc2)C(C(C)C)=CC1=O	> 26 µM (inactive)
O=C(Nc1cc(-c2ccccc2)nn1C1CCCCC1)c1ccc(Cl)cc1	> 26 µM (inactive)
CCOC(=O)C1=C(c2ccc(OC)cc2)C(=O)c2ccccc2C1=O	> 26 µM (inactive)
CCOC(=O)CS(=O)(=O)c1nc(-c2ccccc2)cc(C(F)(F)F)n1	> 26 µM (inactive)
Cc1ccc(C(=O)OCn2ncc(Cl)c(Cl)c2=O)cc1	> 26 µM (inactive)
COc1ccc2c(c1)C(=O)[C@H](O)[C@@H](c1ccc(OC)c(Br)c1)O2	> 26 µM (inactive)
O=C(c1cc(-c2ccccc2Cl)nc2ccccc12)N1CCN(c2ccccn2)CC1	3.83 µM
COc1ccc(C)cc1Nc1n[n+](-c2ccccc2)c(-c2c(OC)ccc3ccccc23)s1	> 26 µM (inactive)
S=C(Nc1ccc(Nc2ccccc2)cc1)Nc1ccccn1	> 26 µM (inactive)
COc1ccc(C(=O)N/N=C(\c2ccccc2)c2ccccn2)cc1	> 26 µM (inactive)
CN(C)S(=O)(=O)c1ccc(Oc2ccc(S(=O)(=O)N(C)C)cc2)cc1	> 26 µM (inactive)
Cc1ccc(-c2[nH]ncc2/C=N/n2c(COc3ccccc3C)nc3ccccc3c2=O)cc1	> 26 µM (inactive)
NC(=S)N/N=C/c1c(O)c(Br)cc2oc3c(c12)CCCC3	> 26 µM (inactive)
CC(C)(C)c1cc[n+](C2=C([O-])c3ccccc3C(=O)/C2=N\S(=O)(=O)c2ccccc2)cc1	> 26 µM (inactive)
Oc1ccc(N=Nc2ccccc2C(F)(F)F)c2cccnc12	> 26 µM (inactive)
CCOc1ccc(OCc2ccc(C(=O)N/N=C(\C)c3ccccn3)cc2)cc1	> 26 µM (inactive)
C/C(=N/NC(=O)CN(c1ccccc1)S(=O)(=O)c1ccccc1)c1ccccc1O	> 26 µM (inactive)
Cc1cc([N+](=O)[O-])nn1Cc1ccc(C(=O)N/N=C/c2ccc(O)cc2O)cc1	> 26 µM (inactive)
COc1ccccc1N1CCN(c2ncc(C(=O)N3CCN(c4cccc(Cl)c4)CC3)c3ccccc23)CC1	> 26 µM (inactive)
CCN(CC)S(=O)(=O)c1cccc(NC(=O)Nc2cccc(C(F)(F)F)c2)c1	> 26 µM (inactive)
Cc1ccc(-c2cc(-c3ccc(C)cc3)[n+](-c3ccccc3)c(-c3ccc(C)cc3)c2)cc1	> 26 µM (inactive)
Cc1cccc(/C=N/NC(=O)c2ccc3c(c2)OCCO3)c1O	> 26 µM (inactive)

Compound	AC50
COc1cc(/C=N/N=C(N)N)ccc1OCc1ccc(Cl)cc1	> 26 µM (inactive)
CCOC(=O)[C@@H]1[C@H]2COc3cc(OC)ccc3[C@H]2N2C(=O)N(c3ccc(C(F)(F)F)cc3)C(=O)[C@]12C	> 26 µM (inactive)
Cc1ccc(Nc2c3c(nc4ccccc24)CCC3)cc1	> 26 µM (inactive)
O=C(O)c1ccc(/C=C2\SC(=S)N(Nc3ccccc3)C2=O)cc1	> 26 µM (inactive)
Cc1ccc(S(=O)(=O)Nc2ccc(NC(=O)Nc3cccc(C(F)(F)F)c3)cc2)cc1	> 26 µM (inactive)
CCn1c(=NC(=O)CCS(=O)(=O)c2ccccc2)sc2cccc(OC)c21	> 12 µM (inactive)
Cc1ccc(-c2nc(N/N=C/c3cccnc3)c3ccccc3n2)cc1	> 26 µM (inactive)
Oc1ccc(/C=N/Nc2ncc(Br)cn2)c(O)c1	> 26 µM (inactive)
COc1cccc(-c2nc(-c3ccc(NC(=O)c4cccnc4)cc3)no2)c1	> 26 µM (inactive)
O=C(N/N=C(\c1ccccc1)c1ccccn1)c1ccccc1Cl	> 26 µM (inactive)
c1ccc(CNc2c3ccccc3nc3ccccc23)cc1	6.14 µM
O=C(CNC(=O)c1ccc2c(c1)OCO2)N/N=C/c1cc(Br)ccc1O	> 26 µM (inactive)
OCCN1CCN(C2Cc3cc(Cl)ccc3Sc3ccc(Cl)cc32)CC1 (centres undefined) (tested in a mixture with another compound)	> 26 µM (inactive)
Nc1nc(-c2ccccn2)nc(N)c1Cc1ccc(Cl)cc1Cl	> 26 µM (inactive)
CCCCCCCCCCn1c2c(c(=N)c3c1CCC3)CCC2	> 26 µM (inactive)
COc1cccc2sc(Nc3nc(-c4ccccn4)cs3)nc12	> 26 µM (inactive)
COc1cc(NC(=O)c2[nH]cnc2C(N)=O)cc(C(=O)Nc2cccc(C(F)(F)F)c2)c1	> 26 µM (inactive)
O=C(N/N=C/c1cc(Cl)ccc1O)c1ccccc1Br	> 26 µM (inactive)
CCN(CC)c1ccc(/C=N/NC(=O)c2cccc(S(=O)(=O)Nc3ccccc3OC)c2)c(O)c1	> 26 µM (inactive)
O=S(=O)(c1ccc(F)c(F)c1F)N1CCN(c2ncnc3sccc23)CC1	> 26 µM (inactive)
Cc1cc2c(NCCc3ccccc3)ncnc2s1	> 26 µM (inactive)
Cc1ccc(S(=O)(=O)Nc2cc(Cl)c(O)c3ncccc23)cc1	> 26 µM (inactive)
CCCCCCn1ccc(=N)cc1	> 26 µM (inactive)
Cc1nn(Cc2c(Cl)cccc2Cl)c(C)c1NC(=O)c1cn(-c2ccccc2)nc1-c1ccccc1	> 26 µM (inactive)

Compound	AC50
N#CC(C#N)=C1C=CC=CN1/C(=C\c1ccco1)C(=O)c1ccc(Br)cc1	> 26 µM (inactive)
C=C1C(=O)O[C@@H]2C[C@@H](C)[C@@H]3C=CC(=O)[C@@]3(C)[C@@H](OC(C)=O)[C@H]12	> 26 µM (inactive)
COC(=O)c1ccc(COc2ccccc2/C=C(\C#N)C(=O)Nc2c(C)cccc2C)cc1	> 26 µM (inactive)
Cc1sc2ncnc(NCC3COc4ccccc4O3)c2c1C (centres undefined)	> 26 µM (inactive)
COc1ccc(-n2cc(-c3ccc(OC(F)F)cc3)[n+]3c2CCCCC3)cc1	> 26 µM (inactive)
Cc1ccccc1N=Nc1ccc(O)c2ncccc12	> 26 µM (inactive)
CCCOc1ccc(/C=N/NC(=S)Nc2ccccc2[N+](=O)[O-])c(O)c1	> 26 µM (inactive)
CC(C)(C)n1[nH]c2c3c(ccc2c1=O)C(=O)c1ccccc1C3=O	> 26 µM (inactive)
CC[C@@H]1C/C=C\Cc2ccccc2[C@H](C(=O)C[C@@H](O)CC(C)=O)OC1=O	> 26 µM (inactive)
O=[N+]([O-])c1ccc(N=Nc2c(Cl)cc(O)cc2Cl)cc1	> 26 µM (inactive)
C=C[C@H](Cc1ccccc1)N(Cc1ccccc1)S(=O)(=O)N(Cc1ccccc1)[C@H](C=C)Cc1ccccc1	> 26 µM (inactive)
Nc1nc(N)c2cc(Sc3ccc4ccccc4c3)ccc2n1	> 26 µM (inactive)
CCOc1ccc(S(=O)(=O)N(C)c2ccc(OCC(=O)Nc3nc4ccccc4s3)cc2)cc1	> 26 µM (inactive)
CCC(C)Sc1ccc(-c2nc3ccc(C)cn3c2NCc2ccccc2)cc1OC (centres undefined)	> 26 µM (inactive)
CNC(=S)N(Cc1cccs1)Cc1cc2cc(OC)c(OC)cc2[nH]c1=O	> 26 µM (inactive)
C=CCSc1nsc(NC(=O)Nc2ccc(F)cc2)n1	> 26 µM (inactive)
O=C(Nc1ccc(N2CCN(C(=O)c3ccc(Cl)cc3)CC2)cc1)c1cccnc1	> 26 µM (inactive)
COc1ccc2cc(C(=O)N/N=C/c3sc4ccccc4c3O)ccc2c1	> 26 µM (inactive)
CC1=NNC(=O)/C1=C\c1cn(-c2ccccc2)nc1-c1ccc(Cl)cc1	> 26 µM (inactive)
COc1ccc(-c2csc(NC(=O)c3ccccc3NS(=O)(=O)c3ccc(F)c(F)c3)n2)cc1	> 26 µM (inactive)
Clc1cccc(N=C2NN=C(c3ccc4c(c3)OCCO4)CS2)c1	> 26 µM (inactive)
COc1cc(/C=C(/C(=O)c2cccs2)c2nc3ccccc3[nH]2)ccc1O	> 26 µM (inactive)
CCOc1cc(/C=N/Nc2cc(C)nc(-n3nc(C)cc3C)n2)ccc1O	> 26 µM (inactive)
c1ccc(-c2nnc(-c3ccccn3)nc2NC2CCCCC2)cc1	> 26 µM (inactive)

Compound	AC50
Cc1ccc(-c2cn(-c3ccc(OC(F)F)cc3)c3[n+]2CCCCC3)cc1	> 26 µM (inactive)
Cn1c(SCC(=O)N/N=C/c2ccc([N+](=O)[O-])s2)nnc1-c1ccccc1	> 26 µM (inactive)
CN(CC1CCCO1)S(=O)(=O)c1ccc(C(=O)Nc2nc(-c3ccccn3)cs2)cc1 (centres undefined)	> 26 µM (inactive)
CCN(CC)S(=O)(=O)c1cccc(NC(=O)c2cc(-c3cccs3)nn2-c2ccccc2)c1	> 26 µM (inactive)
CCn1cc(C(=O)O)c(=O)c2cc(F)c(N/N=C/c3ccccc3[N+](=O)[O-])cc21	> 12 µM (inactive)
O=[N+]([O-])c1ccc(N2CCN(CCOc3nonc3-c3ccccc3)CC2)c(Cl)c1	> 26 µM (inactive)
O=C(C(Sc1ccccc1)c1ccccc1)N1CCN(c2ccccc2F)CC1 (centres undefined)	> 26 µM (inactive)
Cc1ccc(-c2nc(NC(=O)c3nn(C)cc3[N+](=O)[O-])sc2C)cc1	> 26 µM (inactive)
COc1cc2nc(N3CCN(c4cc(C)ccc4C)CC3)nc(N)c2cc1OC	> 26 µM (inactive)
Cc1ccc([N+](=O)[O-])c(OCCN2CCCCCC2)c1	> 26 µM (inactive)
COc1cc(OC)nc(-n2ncc(Br)c(Br)c2=O)n1	> 26 µM (inactive)
CNC(=O)c1cc(Oc2ccc(NC(=O)Nc3ccc(Cl)c(C(F)(F)F)c3)cc2)ccn1	> 26 µM (inactive)
CCOC(=O)CSc1nc2c(c(=O)[nH]1)C(C)(CC)Cc1ccccc1-2 (centres undefined)	> 26 µM (inactive)
COCCCNC(=S)N/N=C/c1cccc(OC)c1O	> 26 µM (inactive)
C/C(=N\Nc1nc(C)cc(-c2ccccc2)n1)c1cccc(N)c1	> 26 µM (inactive)
COc1ccc(OCc2n(CC(=O)OC3CC(C)CCC3C(C)C)c3ccccc3[n+]2C)cc1 (centres undefined)	> 26 µM (inactive)
CN(C)c1cc[n+](Cc2c(Cl)cccc2Cl)cc1	> 26 µM (inactive)
CC1=CC(=O)C(C(C)C)=C/C1=N/OS(=O)(=O)c1ccccc1	> 26 µM (inactive)
CCOc1cccc(/C=N/NC(=O)c2ccc3c(c2)OCCO3)c1O	> 26 µM (inactive)
NNc1nc(-c2ccccc2)cc(-c2ccccc2O)n1	> 26 µM (inactive)
c1ccc2c(NCCCN3CCOCC3)c3ccccc3nc2c1	7.15 µM
Cc1ccc(NC2=CC(=O)C(=O)c3ccccc32)cc1	> 26 µM (inactive)
